In US12421207B2 (CMG Pharmaceutical Co., Ltd., priority 2022, dated 2025) one finds IC50 data, which are given here for 13 molecules.

Molecules are shown by their SMILES. pIC50: −log10 of the molar value. Read-outs that look alike come from different tables or passages of the source.

One assay deals with HCC827/ER cells. The assay is described as follows: Cell viability assay (CellTiter-Glo 2.0), erlotinib-resistant HCC827/ER cells. As to conditions: Homo sapiens, HCC827ER, read-out: Relative cell viability. The assay is classed as cell-based, human. The text has this:
(§1) To explore c-MET and AXL mechanisms of EGFR TKI resistance, resistant cells of the EGFR TKI hypersensitive EGFR exon 19 mutant NSCLC cell line, HCC827 and PC9 were generated by exposing these cells to increasing concentrations of EGFR TKI for over 3 months.
(§2) Gefitinib-resistant cells were referred to as HCC827/GR. […] Osimertinib-resistant cells were referred to as HCC827/OR.

The subject of a further assay is HCC827/GR cells. As to the kind of experiment: Cell viability assay (CellTiter-Glo 2.0), gefitinib-resistant HCC827/GR cells. The class given is cell-based, human. Particulars: Homo sapiens, HCC827, 72 h drug treatment, read-out: Relative cell viability, IC50 HCC827GR.
Text: as §1
The human cell line HCC827 was purchased from the American Type Culture Collection (Manassas, VA), and the PC9 cell line was obtained from RIKEN Cell Bank (Ibaraki, Japan). […] Gefitinib-resistant cells were referred to as HCC827/GR. […] Osimertinib-resistant cells were referred to as HCC827/OR.
(§3) Cell viability assays were carried out by plating 1,000 cells per well of HCC827 or PC9 resistant cells, respectively, into white transparent-bottom 384-well plates. The cells were treated with each TKI across a 10-dose range from 1 nM to 10,000 nM. After 72 h of drug treatment, cell viability was measured using the CellTiter-Glo 2.0 assay (Promega, Madison, WI).
as §3
(Cellular ATP, detected with luciferase, serves as a proxy for viable cell number.)

The subject of another assay is HCC827/OR cells. As to the kind of experiment: Cell viability assay (CellTiter-Glo 2.0), osimertinib-resistant HCC827/OR cells. The class given is cell-based, human. As to conditions: Homo sapiens, HCC827, 72 h drug treatment, read-out: Relative cell viability, IC50 HCC827OR.
Text: as §1, §2

The test system of the next assay is PC9/ER cells. The assay is described as follows: Cell viability assay (CellTiter-Glo 2.0), erlotinib-resistant PC9/ER cells. As to conditions: Homo sapiens, PC-9/ER, 72 h drug treatment, read-out: Relative cell viability, IC50 PC9ER. The class given is cell-based.
Text: as §1, §2

The mark [1] stands for this setting: Table 2, 72 h drug treatment, EGFR TKI resistant cells, combination with EGFR TKI.
Where [2] appears, read: Table 2, EGFR TKI resistant cells, combination with EGFR TKI.
Setting [3] is: Table 4, 72 h drug treatment, combinations of EGFR TKIs and inhibitor of Formula (I).
Where [4] appears, read: Table 4, combinations of EGFR TKIs and inhibitor of Formula (I).

On to `COCCN1CCN(C(C)(C)C#Cc2c(Oc3ccc(NC(=O)c4cn(C(C)C)c(=O)n(-c5ccc(F)cc5)c4=O)cc3F)ccnc2N)CC1` [Example 20, N-(4-(2-amino-3-(3-(4-(2-methoxyethyl)piperazin-1-yl)-3-methylbut-1-ynyl)pyridin-4-yloxy)-3-fluorophenyl)-3-(4-fluorophenyl)-1-isopropyl-2,4-dioxo-1,2,3,4-tetrahydropyrimidine-5-carboxamide], for which the pIC50 with HCC827/ER cells (setting [1]), in the assay with HCC827/GR cells (setting [2]), in the assay on HCC827/OR cells (setting [2]) and with PC9/ER cells (setting [2]) was above 8.00 in each case.

Turning to `COCCN1CCN(C(=O)CCc2c(Oc3ccc(NC(=O)c4cn(C(C)C)c(=O)n(-c5ccc(F)cc5)c4=O)cc3F)ccnc2N)CC1` [Example 21, N-(4-(2-amino-3-(3-(4-(2-methoxyethyl)piperazin-1-yl)-3-oxopropyl)pyridin-4-yloxy)-3-fluorophenyl)-3-(4-fluorophenyl)-1-isopropyl-2,4-dioxo-1,2,3,4-tetrahydropyrimidine-5-carboxamide], the pIC50 with HCC827/ER cells (setting [1]) is above 6.00; in the assay with HCC827/GR cells (setting [2]), above 7.00; with HCC827/OR cells (setting [2]) it was above 6.00; in the assay with PC9/ER cells (setting [2]), above 6.00.

On to `CC(C)n1cc(C(=O)Nc2ccc(Oc3ccnc(N)c3-c3ccccc3)c(F)c2)c(=O)n(-c2ccc(F)cc2)c1=O` [Example 22, N-(4-(2-amino-3-phenylpyridin-4-yloxy)-3-fluorophenyl)-3-(4-fluorophenyl)-1-isopropyl-2,4-dioxo-1,2,3,4-tetrahydropyrimidine-5-carboxamide], for which the pIC50 was above 7.00 in the assay with HCC827/ER cells (setting [1]), above 8.00 in the assay on HCC827/GR cells (setting [2]), above 7.00 in the assay with HCC827/OR cells (setting [2]) and above 7.00 in the assay on PC9/ER cells (setting [2]).

As for `CC(C)n1cc(C(=O)Nc2ccc(Oc3ccnc(N)c3C#CC3CCN(C)CC3)c(F)c2)c(=O)n(-c2ccc(F)cc2)c1=O` [Example 23, N-(4-(2-amino-3-((1-methylpiperidin-4-yl)ethynyl)pyridin-4-yloxy)-3-fluorophenyl)-3-(4-fluorophenyl)-1-isopropyl-2,4-dioxo-1,2,3,4-tetrahydropyrimidine-5-carboxamide], the pIC50 was above 7.00 in the assay on HCC827/ER cells (setting [1]), above 7.00 with HCC827/GR cells (setting [2]), above 8.00 with HCC827/OR cells (setting [2]) and above 8.00 in the assay on PC9/ER cells (setting [2]).

On to `CC(C)n1cc(C(=O)Nc2ccc(Oc3ccnc(N)c3C#CCN3CCOCC3)c(F)c2)c(=O)n(-c2ccc(F)cc2)c1=O` [Example 24, N-(4-(2-amino-3-(3-morpholinoprop-1-ynyl)pyridin-4-yloxy)-3-fluorophenyl)-3-(4-fluorophenyl)-1-isopropyl-2,4-dioxo-1,2,3,4-tetrahydropyrimidine-5-carboxamide], for which the pIC50 in the assay with HCC827/ER cells (setting [1]), with HCC827/GR cells (setting [2]), with HCC827/OR cells (setting [2]) and in the assay with PC9/ER cells (setting [2]) was above 8.00 throughout.

Turning to `CC(C)n1cc(C(=O)Nc2ccc(Oc3ccnc(N)c3C#CC(C)(C)N3CCOCC3)c(F)c2)c(=O)n(-c2ccc(F)cc2)c1=O` [Example 25, N-(4-(2-amino-3-(3-methyl-3-morpholinobut-1-ynyl)pyridin-4-yloxy)-3-fluorophenyl)-3-(4-fluorophenyl)-1-isopropyl-2,4-dioxo-1,2,3,4-tetrahydropyrimidine-5-carboxamide], the pIC50 in the assay on HCC827/ER cells (setting [1]), with HCC827/GR cells (setting [2]), with HCC827/OR cells (setting [2]) and in the assay with PC9/ER cells (setting [2]) was above 8.00 throughout.

As to `CC(C)n1cc(C(=O)Nc2ccc(Oc3ccnc(N)c3C#CCN3CCN(C)CC3)c(F)c2)c(=O)n(-c2ccc(F)cc2)c1=O` [Example 26, N-(4-(2-amino-3-(3-(4-methylpiperazin-1-yl)prop-1-ynyl)pyridine-4-yloxy)-3-fluorophenyl)-3-(4-fluorophenyl)-1-isopropyl-2,4-dioxo-1,2,3,4-tetrahydropyrimidine-5-carboxamide], the pIC50 in the assay on HCC827/ER cells (setting [1]) is above 8.00; with HCC827/GR cells (setting [2]), above 7.00; in the assay on HCC827/OR cells (setting [2]), above 8.00; in the assay on PC9/ER cells (setting [2]) it was above 6.00.

Take `CC(C)n1cc(C(=O)Nc2ccc(Oc3ccnc(N)c3C#CCC3CCNCC3)c(F)c2)c(=O)n(-c2ccc(F)cc2)c1=O` [Example 27, N-(4-(2-amino-3-(3-(piperidin-4-yl)prop-1-ynyl)pyridin-4-yloxy)-3-fluorophenyl)-3-(4-fluorophenyl)-1-isopropyl-2,4-dioxo-1,2,3,4-tetrahydropyrimidine-5-carboxamide]: the pIC50 with HCC827/ER cells (setting [1]), with HCC827/GR cells (setting [2]), with HCC827/OR cells (setting [2]) and in the assay with PC9/ER cells (setting [2]) was above 8.00 throughout.

Consider `COCCN1CCC(CC#Cc2c(Oc3ccc(NC(=O)c4cn(C(C)C)c(=O)n(-c5ccc(F)cc5)c4=O)cc3F)ccnc2N)CC1` [Example 28, N-(4-(2-amino-3-(3-(1-(2-methoxyethyl)piperidin-4-yl)prop-1-ynyl)pyridin-4-yloxy)-3-fluorophenyl)-3-(4-fluorophenyl)-1-isopropyl-2,4-dioxo-1,2,3,4-tetrahydropyrimidine-5-carboxamide], for which the pIC50 in the assay with HCC827/ER cells (setting [1]), with HCC827/GR cells (setting [2]), in the assay on HCC827/OR cells (setting [2]) and in the assay on PC9/ER cells (setting [2]) was above 8.00 throughout.

`CC(C)N1CCC(CC#Cc2c(Oc3ccc(NC(=O)c4cn(C(C)C)c(=O)n(-c5ccc(F)cc5)c4=O)cc3F)ccnc2N)CC1` [Example 29, N-(4-(2-amino-3-(3-(1-isopropylpiperidin-4-yl)prop-1-ynyl)pyridin-4-yloxy)-3-fluorophenyl)-3-(4-fluorophenyl)-1-isopropyl-2,4-dioxo-1,2,3,4-tetrahydropyrimidine-5-carboxmide]: the pIC50 with HCC827/ER cells (setting [1]), in the assay with HCC827/GR cells (setting [2]), in the assay on HCC827/OR cells (setting [2]) and in the assay on PC9/ER cells (setting [2]) was above 8.00 in each case.

`CN(C)C(=O)Cn1cc(C(=O)Nc2ccc(Oc3ccnc(N)c3C#CC(C)(C)N3CCOCC3)c(F)c2)c(=O)n(-c2ccc(F)cc2)c1=O` [Example 33, N-(4-((2-amino-3-(3-methyl-3-morpholinobut-1-yn-1-yl)pyridin-4-yl)oxy)-3-fluorophenyl)-1-(2-(dimethylamino)-2-oxoethyl)-3-(4-fluorophenyl)-2,4-dioxo-1,2,3,4-tetrahydropyrimidine-5-carboxamide]: the pIC50 in the assay with HCC827/ER cells (setting [3]), with HCC827/GR cells (setting [4]), in the assay on HCC827/OR cells (setting [4]) and in the assay on PC9/ER cells (setting [4]) was above 6.00 each time.

Regarding `CN(C)C(=O)Cn1cc(C(=O)Nc2ccc(Oc3ccnc(N)c3C#CCN3CCOCC3)c(F)c2)c(=O)n(-c2ccc(F)cc2)c1=O` [Example 34, N-(4-((2-amino-3-(3-morpholinoprop-1-yn-1-yl)pyridin-4-yl)oxy)-3-fluorophenyl)-1-(2-(dimethylamino)-2-oxoethyl)-3-(4-fluorophenyl)-2,4-dioxo-1,2,3,4-tetrahydropyrimidine-5-carboxamide], the pIC50 in the assay on HCC827/ER cells (setting [3]) is above 6.00; in the assay with HCC827/GR cells (setting [4]) it was above 6.00; with HCC827/OR cells (setting [4]) it was above 5.00; in the assay with PC9/ER cells (setting [4]) it was above 5.00.

Take `CN(C)C(=O)Cn1cc(C(=O)Nc2ccc(Oc3ccnc(N)c3C#CC(C)(C)N3CCNCC3)c(F)c2)c(=O)n(-c2ccc(F)cc2)c1=O` [Example 35, N-(4-((2-amino-3-(3-methyl-3-(piperazin-1-yl)but-1-yn-1-yl)pyridin-4-yl)oxy)-3-fluorophenyl)-1-(2-(dimethylamino)-2-oxoethyl)-3-(4-fluorophenyl)-2,4-dioxo-1,2,3,4-tetrahydropyrimidine-5-carboxamide]: the pIC50 is above 5.00 in the assay with HCC827/ER cells (setting [3]), below 5.00 in the assay on HCC827/GR cells (setting [4]), above 5.00 in the assay on HCC827/OR cells (setting [4]) and below 5.00 in the assay on PC9/ER cells (setting [4]).
